“And” between values parts separate entries of the source, which are not always exact repeats. Equal entries are not always repeated.

This passage reports viability, T/C and IC50 results from PubChem BioAssay AID2060601 (Molecular Pharmacology Branch, DTP, NCI, 2025).

The experiment deals with 874868-142-R-J2-PDC complex spheroids, growth % test/control. The experiment in a line: Anticancer human tumor 874868-142-R-J2-PDC patient-derived head and neck squamous carcinoma cell line growth inhibition [CLK]. As to conditions: for viability, T/C: stronger effect = lower value. The text has this:
A high-throughput screen of multi-cell type tumor spheroids was designed to identify active combinations of […] and targeted small molecules. Complex spheroids include a stromal component modeled by human endothelial cells (HUVEC) and fibroblasts modeled by human mesenchymal stem cells (MSCs). The concentration ranges selected for each drug and investigational agent were based upon clinically achievable concentrations if the clinical Cmax of the agent was known.
Compounds. The drugs and investigational agents: cirtuvivint (SM08502; NSC835563), CC-671 (NSC850746), vemurafenib (NSC761431), tapotoclax (NSC804041), sotorasib (NSC818433), adagrasib (NSC831453), MRTX-1133 (NSC836407), BAY2416964 (NSC825713), copanlisib (NSC816437), inavolisib (NSC800729), abemaciclib (NSC768073), osimertinib (NSC779217), entinostat (NSC756642), eltanexor (KPT-8602, NSC794443), venetoclax (NSC766270), ceralasertib (NSC777638), bortezomib (NSC756655), olaparib (NSC753686), talazoparib (NSC767125), alisertib (NSC759677), peposertib (NSC802822), gemcitabine (NSC613327), 5-fluorouracil (NSC19893), SN-38 (NSC673596), oxaliplatin (NSC266046), paclitaxel (NSC125973), and doxorubicin (NSC123127), were obtained from the National Cancer Institute (NCI) Developmental Therapeutics Program Chemical Repository. The FDA-approved anticancer drug set is available from the Developmental Therapeutics Program at https://dtp.cancer.gov/organization/dscb/obtaining/available plates.htm. […] The stock solutions were prepared in dimethyl sulfoxide (DMSO, Sigma-Aldrich, St. Louis, MO, cat. D2650), except for the platinum complexes which were prepared in saline (Quality Biological, Gaithersburg, MD, cat. 114-055-101), at 800-fold the tested concentration and stored at -70 degrees C prior to their use. All drugs and investigational agents were tested over a range starting from a high concentration at or near the clinical Cmax and decreasing in half-log increments. If the clinical Cmax for an agent had not been determined, the highest concentration tested was 10 microM.
Cell Culture. All cells were maintained in an incubator at 37 degrees C and 5% CO2 with 95% humidity. The PDC lines were cultured according to standard operating procedures established by the NCI PDMR. Briefly, all PDCs were thawed and cultured in Matrigel-coated flasks prepared with a working solution of 1X Ham's F-12 nutrient mix, without supplementation (Invitrogen, Waltham, MA, cat. 11765054), 100 U/mL penicillin-streptomycin (Invitrogen, cat. 15140122), and 2.5% Matrigel (Corning Inc., Corning, NY, cat. 354248) for the first three passages. The 947758-054-R-J2-PDC line was cultured in 6B/Colon 1A media, which includes advanced DMEM/F-12 (Thermo Fisher Scientific, cat. 12634028), 10 mM HEPES (Thermo Fisher Scientific, cat. 15630080), 1X GlutaMAX supplement (Thermo Fisher Scientific, cat. 35050061), 0.1 mg/mL primocin (InvivoGen, cat. ant-pm-2), 10% defined fetal bovine serum, heat inactivated (HyClone Laboratories Inc., cat. SH30070.03HI), 1.25 mM N-Acetyl-L-cysteine (Sigma-Aldrich, cat. A9165), 10 mM nicotinamide (Sigma-Aldrich, cat. N0636), 1X B-27 supplement (Thermo Fisher Scientific, cat. 17504044), 1X N-2 supplement (Thermo Fisher Scientific, cat. 17502048), and 10 microM Y-27632 dihydrochloride (Tocris Bioscience, cat. 1254). The 876862-298-R-J1-PDC was cultured in 6E media, which includes all 6B/Colon 1A media components plus 50% L-WRN conditioned media (ATCC, cat. CRL-3276), 50 ng/mL recombinant human EGF recombinant protein (hEGF; Thermo Fisher Scientific, cat. PHG0311), 10 ng/mL recombinant human fibroblast growth factor 10 (hGFG-10; PeproTech, cat. 100-26), 1 ng/mL recombinant human fibroblast growth factor 2 (hFGF-2; PeproTech, cat. 100-18B), and 1 µM prostaglandin E2 (PGE2; Tocris, cat. 2296). The 227483-062-R1-J1-PDC line was cultured in Panc media, containing all 6E components except hFGF-2, with the addition of 500 nM SB-431542 (Selleckchem, cat. S1067) and 10 nM gastrin (Tocris, cat. 3006). […]
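Note: spheroids exposed to the compounds for 7 days.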

`C#Cc1c(F)ccc2cc(O)cc(-c3ncc4c(N5CC6CCC(C5)N6)nc(OCC56CCCN5CC(F)C6)nc4c3F)c12` (centres undefined): the viability, T/C runs as follows: (compound 0.0316 µM) 87.8% and 104%; (compound 0.1 µM) 90.5% and 95.1%; (compound 0.316 µM) 85.1% and 93.7%; (compound 1 µM) 82.3% and 61%; (compound 3.16 µM) 61.4% and 59%; (compound 10 µM) 49.3% and 46%. Further, under “curve of compound”, the IC50 was 9.28 µM and > 10 µM.
`C=C(F)C(=O)N1CCN(c2nc(OCC3CCCN3C)nc3c2CCN(c2cccc4cccc(Cl)c24)C3)CC1CC#N` (centres undefined): the viability, T/C is 81.4% and 94.5% (compound 0.0316 µM); 95.2% and 103% (compound 0.1 µM); 76.2% and 82.3% (compound 0.316 µM); 68.4% and 87.2% (compound 1 µM); 53.2% and 64.6% (compound 3.16 µM); 1.63% and 4.44% (compound 10 µM). Further, where the note is “curve of compound”, the IC50 was 3.2 µM and 4.14 µM.
Consider `C=CC(=O)N1CCN(c2nc(=O)n(-c3c(C)ccnc3C(C)C)c3nc(-c4c(O)cccc4F)c(F)cc23)C(C)C1` (centres undefined), for which the viability, T/C is, setting by setting: (compound 0.0316 µM) 109% and 92.4%; (compound 0.1 µM) 84.9% and 96%; (compound 0.316 µM) 109% and 104%; (compound 1 µM) 119% and 104%; (compound 3.16 µM) 133% and 131%; (compound 10 µM) 114% and 88.2%. Also, under “curve of compound”, the IC50 is > 10 µM.
With `C=CC(=O)Nc1cc(Nc2nccc(-c3cn(C)c4ccccc34)n2)c(OC)cc1N(C)CCN(C)C`, the viability, T/C is 103% and 99.9% (compound 0.000949 µM); 99.5% and 112% (compound 0.003 µM); 81.5% and 83.4% (compound 0.00949 µM); 83.7% and 76.9% (compound 0.03 µM); 42.4% and 47.1% (compound 0.0949 µM); 24.2% and 20.6% (compound 0.3 µM). Further, the IC50 (curve of compound) was 0.0835 µM and 0.0852 µM.
In the case of `CC(C)CC(NC(=O)C(Cc1ccccc1)NC(=O)c1cnccn1)B(O)O` (centres undefined), the viability, T/C reads like this: (compound 0.000949 µM) 102% and 92.4%; (compound 0.003 µM) 112% and 103%; (compound 0.00949 µM) 20.4% and 5.73%; (compound 0.03 µM) 3.18% and 1.36%; (compound 0.0949 µM) 0.29% and 1.25%; (compound 0.3 µM) 0.24% and 4.02%. The IC50 (curve of compound) was 0.00641 µM and 0.00545 µM.
Take `CC(CO)NC(=O)c1cc(-c2ccc(Cl)cc2)nn(-c2cnn(C)c2)c1=O` (centres undefined): the viability, T/C (compound 0.0316 µM) was 102% and 93.8%; the viability, T/C (compound 0.1 µM) is 95.6% and 100%; the viability, T/C (compound 0.316 µM) was 97.7% and 89.3%; the viability, T/C (compound 1 µM) is 101% and 94.3%; the viability, T/C (compound 3.16 µM) was 102% and 94.3%; the viability, T/C (compound 10 µM) was 95.6% and 99.3%. In addition, the IC50 (curve of compound) was > 10 µM.
On to `CC(Nc1ccc2c(c1)OCCn1cc(N3C(=O)OCC3C(F)F)nc1-2)C(N)=O` (centres undefined), for which the viability, T/C runs as follows: (compound 0.0316 µM) 89.2%; (compound 0.1 µM) 38.7%; (compound 0.316 µM) 28.3%; (compound 1 µM) 23.4%; (compound 3.16 µM) 13.5%; (compound 10 µM) 13.2%. The IC50 (curve of compound) was determined as 0.0824 µM.
With `CC1(C)CCC(CN2CCN(c3ccc(C(=O)NS(=O)(=O)c4ccc(NCC5CCOCC5)c([N+](=O)[O-])c4)c(Oc4cnc5[nH]ccc5c4)c3)CC2)=C(c2ccc(Cl)cc2)C1`, the viability, T/C is 79.2% and 90.1% (compound 0.0316 µM); 104% and 95.1% (compound 0.1 µM); 97.9% and 100% (compound 0.316 µM); 101% and 91.3% (compound 1 µM); 93% and 97.6% (compound 3.16 µM); 84.1% and 44% (compound 10 µM). Besides, the IC50 (curve of compound) was > 10 µM and 8.72 µM.
`CCCS(=O)(=O)Nc1ccc(F)c(C(=O)c2c[nH]c3ncc(-c4ccc(Cl)cc4)cc23)c1F`: the viability, T/C (compound 0.0316 µM) was 115% and 95.8%; the viability, T/C (compound 0.1 µM) was 113% and 129%; the viability, T/C (compound 0.316 µM) was 116% and 105%; the viability, T/C (compound 1 µM) is 111% and 136%; the viability, T/C (compound 3.16 µM) is 120% and 141%; the viability, T/C (compound 10 µM) is 85.7% and 73.7%. Besides, the IC50 (curve of compound) is > 10 µM.
Take `CCN1CCN(Cc2ccc(Nc3ncc(F)c(-c4cc(F)c5nc(C)n(C(C)C)c5c4)n3)nc2)CC1`: the viability, T/C (compound 0.00316 µM) is 107% and 111%; the viability, T/C (compound 0.01 µM) was 83.9% and 104%; the viability, T/C (compound 0.0316 µM) is 89.7% and 115%; the viability, T/C (compound 0.1 µM) was 76.6% and 104%; the viability, T/C (compound 0.316 µM) was 97.1% and 112%; the viability, T/C (compound 1 µM) is 156% and 101%. Also, under “curve of compound”, the IC50 is > 1 µM.
In the case of `CCc1c2c(nc3ccc(O)cc13)-c1cc3c(c(=O)n1C2)COC(=O)[C@]3(O)CC`, the viability, T/C was 37.6% and 46.9% (compound 0.00316 µM); 41% and 49.8% (compound 0.01 µM); 32.2% and 42.1% (compound 0.0316 µM); 32.6% and 36% (compound 0.1 µM); 11.1% and 16.2% (compound 0.316 µM); 3.13% and 2.22% (compound 1 µM). Further, the IC50 (curve of compound) is < 0.00316 µM.
For `CN1CCN(c2cc(C(=O)Nc3cc4cc(-c5cnn(C)c5)ccc4cn3)ccn2)CC1`, the viability, T/C was 92.8% [middle of 12 runs] (compound 0.0316 µM); 75.6% [middle of 12 runs] (compound 0.1 µM); 19.5% [middle of 12 runs] (compound 0.316 µM); 2.43% [middle of 12 runs] (compound 1 µM); 0.92% [middle of 10 runs] (compound 3.16 µM); 0.22% [middle of 9 runs] (compound 10 µM). Further, the IC50 (compound alone, run of 09/18/2023) is 168 nM [middle of 10 runs].
Regarding `COC1C=CCC(C)C(C)S(=O)(=O)NC(=O)c2ccc3c(c2)N(CC2CCC21)CC1(CCCc2cc(Cl)ccc21)CO3` (centres undefined), the viability, T/C by setting is: (compound 0.0316 µM) 103% and 104%; (compound 0.1 µM) 72.9% and 83.5%; (compound 0.316 µM) 65.5% and 53.1%; (compound 1 µM) 50.5% and 46.5%; (compound 3.16 µM) 25.1% and 30.6%; (compound 10 µM) 12.7% and 13.8%. Where the note is “curve of compound”, the IC50 was 0.756 µM and 0.631 µM.
`COc1c(OCCCN2CCOCC2)ccc2c3n(c(=NC(=O)c4cnc(N)nc4)nc12)CCN3`: the viability, T/C was 67% (compound 0.00316 µM); 48.4% (compound 0.01 µM); 22.6% (compound 0.0316 µM); 10.7% (compound 0.1 µM); 5.08% (compound 0.316 µM); 3.71% (compound 1 µM). The IC50 (curve of compound) turned out to be 0.00888 µM.
Consider `Cn1ncnc1[C@H]1c2n[nH]c(=O)c3cc(F)cc(c23)N[C@@H]1c1ccc(F)cc1`, for which the viability, T/C is, setting by setting: (compound 0.000316 µM) 115% and 86.3%; (compound 0.001 µM) 96.7% and 94.6%; (compound 0.00316 µM) 93.1% and 98.7%; (compound 0.01 µM) 92.4% and 87.5%; (compound 0.0316 µM) 73.8% and 87%; (compound 0.1 µM) 69.2% and 77.6%. In addition, the IC50 (curve of compound) was > 0.1 µM.
As to `NC(=O)C(=Cn1cnc(-c2cc(C(F)(F)F)cc(C(F)(F)F)c2)n1)c1cncnc1`, the viability, T/C runs as follows: (compound 0.00949 µM) 90.5% and 86%; (compound 0.03 µM) 72.8% and 48.9%; (compound 0.0949 µM) 43.8% and 30.9%; (compound 0.3 µM) 18.4% and 12%; (compound 0.949 µM) 4.77% and 4.05%; (compound 3 µM) 8.1% and 6.28%. Moreover, the half-maximal inhibitory concentration (IC50) (curve of compound) was 0.073 µM and 0.0311 µM.
Take `Nc1ccccc1NC(=O)c1ccc(CNC(=O)OCc2cccnc2)cc1`: the viability, T/C was 97% and 102% (compound 0.0316 µM); 95.4% and 87.3% (compound 0.1 µM); 90% and 113% (compound 0.316 µM); 110% and 124% (compound 1 µM); 95.8% and 101% (compound 3.16 µM); 36.9% and 26.4% (compound 10 µM). Further, the IC50 (curve of compound) was 7.73 µM and 6.99 µM.
